Experimental data from patent US20090143285A1, “TARGET PROTEIN AND TARGET GENE FOR DRUG DISCOVERY AND SCREENING METHOD” (REVERSE PROTEOMICS RESEARCH INSTITUTE CO., LTD., priority 2005, published 2009).
“Also recorded” adds a separate entry of the source. Like-named read-outs stand apart in the source and are kept apart here. Blank lines part the entries; values can stand above or below the molecule they belong to.

Key:
[1] = target: T1, FLJ38531-derived protein (Homo sapiens, UniProt Q9BVM4); test: SEC/MS interaction analysis, FLJ38531-derived protein (hypothetical protein BC004360); format: binding; settings: spin column method; doses of both compound and protein varied
T1 construct: His-tag (N); made in house; host or cells: Escherichia coli BL21star(DE3)pLysS
T1 sequence (Q9BVM4 1-153): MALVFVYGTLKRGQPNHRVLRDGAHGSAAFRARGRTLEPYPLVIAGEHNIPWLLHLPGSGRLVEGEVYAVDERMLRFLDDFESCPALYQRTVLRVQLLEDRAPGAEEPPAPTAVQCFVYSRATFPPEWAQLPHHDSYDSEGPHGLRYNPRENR
From the text: (§1) To analyze the interactions between commonly used drugs and proteins expressed from human full-length cDNA clones while keeping both the proteins and the compounds in non-modified, non-immobilized state, size exclusion chromatography (SEC) and mass analysis were used in combination. The specific procedures are shown below.
(§2) The compound-protein mixture prepared in step 1 was subjected to chromatography using an SEC column, the compound and the protein were separated by SEC, and the compound that interacted with the bound compound or protein contained in the protein fraction was analyzed using a mass analyzer.
(§3) Protein concentrations were measured using BCA Protein Assay (PIERCE), in consideration of the purity calculated by SDS-PAGE.
(§4) Mass analysis was performed using LCQ DECA XP (Thermoelectron) or Q-TOF micro (Micromass), equipped with an ESI probe. The LC pump used was Agilent 1100 (Yokogawa Analytical Systems), and the autosampler used was HTC-PAL (CTC Analytics) equipped with a cooling stacker. The SEC column used was a micro-LC column or a 384-well spin column. […]
(§5) In the 384-well spin column method, Unifilter 100 (Whatman), packed with 10 μL (dry volume) of Bio-Gel P6 (BIO-RAD) and swollen with milliQ water, was used as the SEC column. […] The SEC spin column was mounted on an acetonitrile-aliquoted 384-well U-bottom plate and centrifuged; the SEC spin column filtrate, which is a protein fraction, was recovered in 50% acetonitrile. The protein precipitate produced by the acetonitrile was removed via centrifugation and filtration for deproteinization; the resulting filtrate was concentrated by centrifugal concentration and re-dissolved in 10 μL of 50% methanol to obtain a mass analysis sample. The mobile phase supplied to the mass analyzer was 0.1% formic acid/50% methanol solution in the positive ion mode, and 0.1% ammonia/50% methanol solution in the negative ion mode; these mobile phases were used at a flow rate of 40 μL/min. 2-μL of mass analysis samples were injected using an autosampler at 2-minute intervals; the mass spectral intensity of the compound was measured to retrieve the spectral intensity of the pharmaceutical compound contained in the SEC spin column filtrate (protein fraction eluted from SEC).

[2] = test system: FLJXXXXX-derived proteins; test: SEC/MS spin column interaction analysis of FLJXXXXX-derived proteins and various compounds (Tables 30-1 to 30-4); format: binding, human
[3] = target: T2, FLJ10420-derived protein (Homo sapiens, UniProt Q9NVZ3, T157A); test: SEC/MS interaction analysis, FLJ10420-derived protein (hypothetical protein FLJ10420); format: binding
T2 construct: His-tag (N); made in house; host or cells: Escherichia coli BL21star(DE3)pLysS
T2 sequence (Q9NVZ3 1-263 T157A): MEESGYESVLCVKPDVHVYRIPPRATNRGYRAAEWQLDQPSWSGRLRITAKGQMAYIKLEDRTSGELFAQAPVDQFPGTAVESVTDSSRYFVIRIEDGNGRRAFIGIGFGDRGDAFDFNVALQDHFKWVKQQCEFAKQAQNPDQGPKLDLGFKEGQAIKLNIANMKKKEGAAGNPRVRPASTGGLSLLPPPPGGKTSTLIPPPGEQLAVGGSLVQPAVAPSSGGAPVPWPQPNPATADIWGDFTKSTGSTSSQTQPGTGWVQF
From the text: as §1, §2, §3, §4, §5

[4] = target: T3, FLJ41991-derived protein (Homo sapiens, UniProt P57764, E293G); test: SEC/MS interaction analysis, FLJ41991-derived protein (GSDMDC1); format: binding
T3 construct: His-tag (N); made in house; host or cells: Escherichia coli BL21star(DE3)pLysS (pDEST17)
T3 sequence (P57764 265-484 E293G): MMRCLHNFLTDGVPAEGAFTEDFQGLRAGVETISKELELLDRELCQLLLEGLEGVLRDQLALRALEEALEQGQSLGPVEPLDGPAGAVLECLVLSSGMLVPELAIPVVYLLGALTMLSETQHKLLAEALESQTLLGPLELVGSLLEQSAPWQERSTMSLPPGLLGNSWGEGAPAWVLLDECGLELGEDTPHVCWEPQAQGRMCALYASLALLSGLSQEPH
From the text: as §1, §2, §3, §4, §5

[5] = SEC spin column filtrate, spectral intensity increased with doses of compound and protein
[6] = compound 12.5 μM, protein 10 μM
[7] = compound 62.5 μM, protein 10 μM
[8] = spin column method, doses of both compound and protein varied

Molecule: CCn1cc(C(=O)O)c(=O)c2ccc(C)nc21 [nalidixic acid]
- interaction judged from spectrum intensity of the compound in the SEC spin column filtrate (protein fraction eluted from SEC) [1]: concentration-dependent interaction
- FLJ No of the derived protein with which the compound was judged to exhibit a concentration-dependent interaction [2, 5]: FLJ38531

Molecule: CC(=O)CCCCn1c(=O)c2c(ncn2C)n(C)c1=O [pentoxifylline]
- FLJ No of the derived protein with which the compound was judged to exhibit a concentration-dependent interaction [2, 5]: FLJ35353

- spectrum intensity of the compound in the SEC spin column filtrate ([3]; compound 12.5 μM, protein 0 μM): 412892
- spectrum intensity of the compound in the SEC spin column filtrate ([3]; compound 12.5 μM, protein 5 μM): 323916
- spectrum intensity of the compound in the SEC spin column filtrate [3, 6]: 294069
- spectrum intensity of the compound in the SEC spin column filtrate ([3]; compound 12.5 μM, protein 15 μM): 237571
- spectrum intensity of the compound in the SEC spin column filtrate ([3]; compound 25 μM, protein 0 μM): 441470
- spectrum intensity of the compound in the SEC spin column filtrate ([3]; compound 25 μM, protein 5 μM): 490309
- spectrum intensity of the compound in the SEC spin column filtrate ([3]; compound 25 μM, protein 10 μM): 647010
- spectrum intensity of the compound in the SEC spin column filtrate ([3]; compound 25 μM, protein 15 μM): 496587
- spectrum intensity of the compound in the SEC spin column filtrate ([3]; compound 62.5 μM, protein 0 μM): 841101
- spectrum intensity of the compound in the SEC spin column filtrate ([3]; compound 62.5 μM, protein 5 μM): 1376939
- spectrum intensity of the compound in the SEC spin column filtrate [3, 7]: 1450464
- spectrum intensity of the compound in the SEC spin column filtrate ([3]; compound 62.5 μM, protein 15 μM): 1862334
- interaction judged from spectrum intensity of the compound in the SEC spin column filtrate (protein fraction eluted from SEC) [3, 8]: concentration-dependent interaction
Molecule: COc1ccc(C(=O)NCc2cccnc2)cc1C(=O)NCc1cccnc1 [picotamide]
- FLJ No of the derived protein with which the compound was judged to exhibit a concentration-dependent interaction [2, 5]: FLJ10420

Molecule: CC(N/C(=N\C#N)Nc1ccncc1)C(C)(C)C (centres unmarked) [pinacidil]
- FLJ No of the derived protein with which the compound was judged to exhibit a concentration-dependent interaction [2, 5]: FLJ35353

Molecule: CNCCCC1c2ccccc2C=Cc2ccccc21 [protriptyline.]
- FLJ No of the derived protein with which the compound was judged to exhibit a concentration-dependent interaction [2, 5]: FLJ20972

- spectrum intensity of the compound in the SEC spin column filtrate ([4]; compound 12.5 μM, protein 0 μM): 36421
- spectrum intensity of the compound in the SEC spin column filtrate ([4]; compound 12.5 μM, protein 5 μM): 77607
- spectrum intensity of the compound in the SEC spin column filtrate [4, 6]: 225680
- spectrum intensity of the compound in the SEC spin column filtrate ([4]; compound 12.5 μM, protein 25 μM): 439131
- spectrum intensity of the compound in the SEC spin column filtrate ([4]; compound 25 μM, protein 0 μM): 40978
- spectrum intensity of the compound in the SEC spin column filtrate ([4]; compound 25 μM, protein 5 μM): 125609
- spectrum intensity of the compound in the SEC spin column filtrate ([4]; compound 25 μM, protein 10 μM): 481486
- spectrum intensity of the compound in the SEC spin column filtrate ([4]; compound 25 μM, protein 25 μM): 457713
- spectrum intensity of the compound in the SEC spin column filtrate ([4]; compound 62.5 μM, protein 0 μM): 123977
- spectrum intensity of the compound in the SEC spin column filtrate ([4]; compound 62.5 μM, protein 5 μM): 598920
- spectrum intensity of the compound in the SEC spin column filtrate [4, 7]: 1080431
- spectrum intensity of the compound in the SEC spin column filtrate ([4]; compound 62.5 μM, protein 25 μM): 1854355
- interaction judged from spectrum intensity of the compound in the SEC spin column filtrate (protein fraction eluted from SEC) [4, 8]: concentration-dependent interaction
Molecule: CCN(CC)CCCC(C)Nc1c2ccc(Cl)cc2nc2ccc(OC)cc12 (centres unmarked) [quinacrine]
- FLJ No of the derived protein with which the compound was judged to exhibit a concentration-dependent interaction [2, 5]: FLJ37909; also recorded: FLJ41991

Molecule: COC(=O)[C@H]1[C@H]2C[C@@H]3c4[nH]c5cc(OC)ccc5c4CCN3C[C@H]2C[C@@H](OC(=O)/C=C/c2cc(OC)c(OC)c(OC)c2)[C@@H]1OC [rescinnamine]
- FLJ No of the derived protein with which the compound was judged to exhibit a concentration-dependent interaction [2, 5]: FLJ37909

Molecule: COC(=O)[C@H]1[C@H]2C[C@@H]3c4[nH]c5cc(OC)ccc5c4CCN3C[C@H]2C[C@@H](OC(=O)c2cc(OC)c(OC)c(OC)c2)[C@@H]1OC [reserpine]
- FLJ No of the derived protein with which the compound was judged to exhibit a concentration-dependent interaction [2, 5]: FLJ37909

Molecule: COc1cccc(CCc2ccccc2OCC(CN(C)C)OC(=O)CCC(=O)O)c1 (centres unmarked) [sarpogrelate]
- FLJ No of the derived protein with which the compound was judged to exhibit a concentration-dependent interaction [2, 5]: FLJ39553

Molecule: C[C@@H]1CC[C@@]2(NC1)O[C@H]1C[C@H]3[C@@H]4CC=C5C[C@@H](O)CC[C@]5(C)[C@H]4CC[C@]3(C)[C@H]1[C@@H]2C [solasodine]
- FLJ No of the derived protein with which the compound was judged to exhibit a concentration-dependent interaction [2, 5]: FLJ35353

Molecule: COc1cc(NS(=O)(=O)c2ccc(N)cc2)nc(OC)n1 [sulfadimethoxine]
- FLJ No of the derived protein with which the compound was judged to exhibit a concentration-dependent interaction [2, 5]: FLJ39553

Molecule: CCOC(=O)Oc1c(OC)cc(C(=O)O[C@@H]2C[C@@H]3CN4CCc5c([nH]c6cc(OC)ccc56)[C@H]4C[C@@H]3[C@H](C(=O)OC)[C@H]2OC)cc1OC [syrosingopine]
- FLJ No of the derived protein with which the compound was judged to exhibit a concentration-dependent interaction [2, 5]: FLJ35353

Molecule: CC/C(=C(\c1ccccc1)c1ccc(OCCN(C)C)cc1)c1ccccc1 [tamoxifen]
- FLJ No of the derived protein with which the compound was judged to exhibit a concentration-dependent interaction [2, 5]: FLJ37909

Molecule: c1ccc2c(c1)CCCC2C1=NCCN1 (centres unmarked) [tetrazoline]
- FLJ No of the derived protein with which the compound was judged to exhibit a concentration-dependent interaction [2, 5]: FLJ36526

Molecule: CSc1ccc2c(c1)N(CCC1CCCCN1C)c1ccccc1S2 (centres unmarked) [thioridazine]
- FLJ No of the derived protein with which the compound was judged to exhibit a concentration-dependent interaction [2, 5]: FLJ37909

Molecule: CN1CCN(CC/C=C2/c3ccccc3Sc3ccc(S(=O)(=O)N(C)C)cc32)CC1 [thiothixene (cis), thiothixene]
- FLJ No of the derived protein with which the compound was judged to exhibit a concentration-dependent interaction [2, 5]: FLJ37909
- FLJ No of the derived protein with which the compound was judged to exhibit a concentration-dependent interaction ([2]; SEC spin column filtrate, spectral intensity increased with doses of compound and protein, listed as Thiothixene (cis)): FLJ35353

Molecule: C[C@H]1CC[C@]2(NC1)O[C@H]1C[C@H]3[C@@H]4CC[C@H]5C[C@@H](O)CC[C@]5(C)[C@H]4CC[C@]3(C)[C@H]1[C@@H]2C [tomatidine]
- FLJ No of the derived protein with which the compound was judged to exhibit a concentration-dependent interaction [2, 5]: FLJ35353

Molecule: CC(C)C[C@H]1C(=O)N2CCC[C@H]2[C@]2(O)O[C@](NC(=O)[C@@H]3C=C4c5cccc6[nH]cc(c56)C[C@H]4N(C)C3)(C(C)C)C(=O)N12 [α-ergocryptine]
- FLJ No of the derived protein with which the compound was judged to exhibit a concentration-dependent interaction [2, 5]: FLJ35353

Molecule: celestine blue
- FLJ No of the derived protein with which the compound was judged to exhibit a concentration-dependent interaction [2, 5]: FLJ39553

Molecule: cyclosporin A
- FLJ No of the derived protein with which the compound was judged to exhibit a concentration-dependent interaction [2]: FLJ23466; also recorded: FLJ11211; also recorded: FLJ37909

Molecule: eburnamonine
- FLJ No of the derived protein with which the compound was judged to exhibit a concentration-dependent interaction [2, 5]: FLJ11211

Molecule: spiramycin
- FLJ No of the derived protein with which the compound was judged to exhibit a concentration-dependent interaction [2, 5]: FLJ21841
